Test results published in patent publication US20130253449A1, “NORADRENERGIC AND SPECIFIC SEROTONERGIC ANTIDEPRESSANT-CONTAINING TRANSDERMAL PATCH” (priority 2010, published 2013).

Tests used:
[1] = system: brain monoamine (NA, DA and 5-HT); test: Measurement of brain monoamine level (microdialysis, prefrontal region) during 12-hour mirtazapine administration; format: in vivo, rat
Experimental: Rats (male, body weight: 200 to 300 g, n=5) were anesthetized by inhalation of isoflurane, and then a cannula for long-term continuous administration was buried under the skin of each rat and a guide (microdialysis) was in the prefrontal region thereof. In 5 to 7 days after the guide insertion, a probe for measurement of monoamine in the brain was inserted into the prefrontal region, and via the microsyringe pump connected to the probe, a perfusate was perfused at a flow rate of 0.5 μL/min. For mirtazapine administration, a mirtazapine 3 mg/mL/kg solution was administered in a predetermined dose via the microsyringe pump, taking 12 hours. A Ringer' s solution was used as the perfusate, which was collected at intervals of 1 hour using a fraction collector.
(§1) Monoamine was measured from the perfusate collected by the fraction collector, and mirtazapine was measured from the plasma sample through HPLC.

[2] = Measurement of plasma mirtazapine level during 12-hour mirtazapine administration; format: in vivo; settings: rat, subcutaneous, 6 hours after start of administration, 3 mg/mL/kg over 12 hours, read-out: mean concentration of mirtazapine in rat plasma (mean±SEM)
Experimental: Next, at the same dose mode and through the same administration route as above, mirtazapine (3 mg/mL/kg) was administered in a predetermined dose, taking 12 hours, and in 6 hours after the start, the blood was collected. The time at which the administration was started was referred to as the test start time. Heparin was added to the collected blood and then centrifuged, and the thus-separated plasma was the sample.
as §1

[3] = 18 hours after start of administration, mirtazapine 3 mg/mL/kg solution over 12 hours

Q: For `CN1CCN2c3ncccc3Cc3ccccc3C2C1` (stereo not shown) [mirtazapine], which “NA and DA in rat prefrontal region” value ([1]; 1 hour after start of mirtazapine administration) is on record?
A: increase in NA and DA was admitted

Q: And the “NA level in rat prefrontal region (mean±SEM)” value ([1]; 7 hours after start of administration, mirtazapine 3 mg/mL/kg solution over 12 hours, n=5)?
A: 184.7±17.3%

Q: And the “DA level in rat prefrontal region” value ([1]; 8 hours after start of administration, mirtazapine 3 mg/mL/kg solution over 12 hours, n=5)?
A: 222.1±38.5%

Q: And the “DA level in rat prefrontal region” value [1, 3]?
A: 159.2±15.6%

Q: What about the “NA level in rat prefrontal region” value [1, 3] of the same compound?
A: 124.2±10.7

Q: What about the “influence on 5-HT in rat prefrontal region” value ([1]; mirtazapine 3 mg/mL/kg solution over 12 hours) of the same compound?
A: no influence on 5-HT was admitted

Q: And the concentration at 6 h [2]?
A: 27.5 ± 3.5 ng/mL
